Test results from ChEMBL document CHEMBL1201862, “PubChem BioAssay data set” (2004).
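In this assay, cells in 96-well plates receive the compound at five concentrations for 48 hours. Endpoints are linearly interpolated between the surrounding concentrations. At the GI50, growth is halved.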 The source made the active and inactive calls. Cut-off read from the data, not from the text of the source: active = GI50 up to about 1.1 µM and inactive = higher.

Experiments:
Assay in all cases: inhibition of tumour cell growth, NCI panel, 48 h
A498 = system: A498
CAKI-1 = system: CAKI-1
HCT-15 = system: HCT-15
HOP-92 = system: HOP-92
IGROV-1 = system: IGROV-1
KM12 = system: KM12
LOX IMVI = system: LOX IMVI
M14 = system: M14
MDA-MB-435 = system: MDA-MB-435
MOLT-4 = system: MOLT-4
NCI-H226 = system: NCI-H226
NCI/ADR-RES = system: NCI/ADR-RES
OVCAR-3 = system: OVCAR-3
OVCAR-8 = system: OVCAR-8
SK-OV-3 = system: SK-OV-3
SNB-75 = system: SNB-75
SW-620 = system: SW-620
TK-10 = system: TK-10
U-251 = system: U-251
UACC-257 = system: UACC-257

Row | SMILES | GI50 (A498) | GI50 (CAKI-1) | GI50 (HCT-15) [µM] | GI50 (HOP-92) | GI50 (IGROV-1) | GI50 (KM12) | GI50 (LOX IMVI) | GI50 (M14) | GI50 (MDA-MB-435) | GI50 (MOLT-4) | GI50 (NCI-H226) | GI50 (NCI/ADR-RES) | GI50 (OVCAR-3) | GI50 (OVCAR-8) | GI50 (SK-OV-3) | GI50 (SNB-75) | GI50 (SW-620) | GI50 (TK-10) | GI50 (U-251) | GI50 (UACC-257)
1 | COc1ccc(CN(CCc2c[nH]c3ccccc23)Cc2ccc(OC)cc2)cc1 | 4.24 µM (inactive) | 3.94 µM (inactive) | 3.44 | 3.29 µM (inactive) | 1.8 µM (inactive) | 2.67 µM (inactive) | 3.15 µM (inactive) | 2.8 µM (inactive) | 2.76 µM (inactive) | > 21 µM (inactive) | 1.37 µM (inactive) | 3.2 µM (inactive) | 3.23 µM (inactive) | 3.95 µM (inactive) | 5.46 µM (inactive) | 6.25 µM (inactive) | 4.19 µM (inactive) | 1.29 µM (inactive) | 5.81 µM (inactive) | 3.8 µM (inactive)
2 | O=C(CCN1CCCCC1)N1CCc2c([nH]c3ccccc23)C1c1cccnc1 (stereo not given) | 30.5 µM (inactive) | > 73.6 µM (inactive) | 85.5 | 29.7 µM (inactive) | > 92 µM (inactive) | > 100 µM (inactive) | 40.6 µM (inactive) | 22.9 µM (inactive) | 35.5 µM (inactive) | 47.1 µM (inactive) | > 91.8 µM (inactive) | > 100 µM (inactive) | > 100 µM (inactive) | 69.3 µM (inactive) | > 100 µM (inactive) | 58.3 µM (inactive) | > 94 µM (inactive) | 68.9 µM (inactive) | 80 µM (inactive) | 17.5 µM (inactive)
3 | O=C1c2cc([N+](=O)[O-])sc2C(=O)c2ccsc21 | 2.14 µM (inactive) | 1.24 µM (inactive) | 0.284 | 0.201 µM (active) | 0.413 µM (active) | 0.407 µM (active) | 0.0687 µM (active) | 0.258 µM (active) | 0.177 µM (active) | 0.215 µM (active) | 1.36 µM (inactive) | 0.824 µM (active) | 0.0392 µM (active) | 0.465 µM (active) | 1.58 µM (inactive) | 1.4 µM (inactive) | 0.245 µM (active) | 0.774 µM (active) | 0.203 µM (active) | 0.242 µM (active)
4 | CN(C)c1nncc2[nH]nnc12 | > 100 µM (inactive) | > 100 µM (inactive) | > 100 | > 100 µM (inactive) | > 100 µM (inactive) | > 100 µM (inactive) | > 100 µM (inactive) | > 100 µM (inactive) | > 100 µM (inactive) | > 100 µM (inactive) | > 100 µM (inactive) | > 100 µM (inactive) | > 100 µM (inactive) | > 100 µM (inactive) | > 100 µM (inactive) | > 100 µM (inactive) | > 100 µM (inactive) | > 100 µM (inactive) | > 100 µM (inactive) | > 100 µM (inactive)
5 | CCCCCC(=O)OC[n+]1ccc(-c2c(COC(=O)NC(C)C)c(COC(=O)NC(C)C)c3n2CCC3)cc1 | > 100 µM (inactive) | 49.5 µM (inactive) | > 100 | > 100 µM (inactive) | > 100 µM (inactive) | > 100 µM (inactive) | > 100 µM (inactive) | > 100 µM (inactive) | > 100 µM (inactive) | 35.9 µM (inactive) | > 100 µM (inactive) | > 100 µM (inactive) | > 100 µM (inactive) | > 100 µM (inactive) | > 100 µM (inactive) | > 100 µM (inactive) | > 100 µM (inactive) | > 100 µM (inactive) | > 100 µM (inactive) | > 100 µM (inactive)
6 | CC(C)(C)OC(=O)NCC(c1c[nH]c2ccccc12)c1c[nH]c2ccccc12 | > 100 µM (inactive) | 14.5 µM (inactive) | 20.8 | 13.1 µM (inactive) | 12.3 µM (inactive) | 13.3 µM (inactive) | 17.9 µM (inactive) | 14.9 µM (inactive) | 15.7 µM (inactive) | 11.7 µM (inactive) | 21 µM (inactive) | 19.4 µM (inactive) | 15.3 µM (inactive) | 16.7 µM (inactive) | 16.8 µM (inactive) | 14.7 µM (inactive) | 17 µM (inactive) | 15.5 µM (inactive) | 16.1 µM (inactive) | 15.1 µM (inactive)
7 | Cc1ccc(S(=O)(=O)N2CCC(=O)c3cc(Br)ccc32)cc1 | 15 µM (inactive) | 11.8 µM (inactive) | 4.88 | 18.6 µM (inactive) | 6.1 µM (inactive) | 3.24 µM (inactive) | 6.52 µM (inactive) | 5.06 µM (inactive) | 1.79 µM (inactive) | 4.51 µM (inactive) | 37.7 µM (inactive) | 6.56 µM (inactive) | 9.93 µM (inactive) | 14.4 µM (inactive) | 20.5 µM (inactive) | 14.6 µM (inactive) | 6.04 µM (inactive) | 10.7 µM (inactive) | 3.72 µM (inactive) | 6.95 µM (inactive)
8 | COCc1cc2c(s1)C(=O)C1=C(C2=O)C2(C=C(Br)C(=O)C(Br)=C2)CCN1 | 15.7 µM (inactive) | 20 µM (inactive) | 3.13 | 4.94 µM (inactive) | 7.24 µM (inactive) | 4.85 µM (inactive) | 2.19 µM (inactive) | 1.68 µM (inactive) | 1.58 µM (inactive) | 2.43 µM (inactive) | 12.7 µM (inactive) | 3.52 µM (inactive) | 0.809 µM (active) | 4.15 µM (inactive) | 17 µM (inactive) | 14.6 µM (inactive) | 3.21 µM (inactive) | 18.2 µM (inactive) | 11.4 µM (inactive) | 1.55 µM (inactive)
9 | O=[N+]([O-])c1ccc(NN/N=N/c2ccc(-c3nc4ccccc4s3)cc2)c([N+](=O)[O-])c1 | 4.34 µM (inactive) | 26.5 µM (inactive) | 22.7 | 21 µM (inactive) | 19.9 µM (inactive) | 27.5 µM (inactive) | 17.3 µM (inactive) | 18.2 µM (inactive) | 24.1 µM (inactive) | 13.7 µM (inactive) | 29.5 µM (inactive) | 25.1 µM (inactive) | 19.8 µM (inactive) | 24.3 µM (inactive) | 28.7 µM (inactive) | 24.8 µM (inactive) | 37.6 µM (inactive) | 36.9 µM (inactive) | 23.4 µM (inactive) | 18.9 µM (inactive)
10 | CC(C)(C)[Si](C)(C)OCC1OC(n2cnc3c(=O)[nH]cnc32)CC1O (stereo not given) | > 100 µM (inactive) | > 100 µM (inactive) | > 100 | > 100 µM (inactive) | > 100 µM (inactive) | > 100 µM (inactive) | > 100 µM (inactive) | > 100 µM (inactive) | > 100 µM (inactive) | > 100 µM (inactive) | > 100 µM (inactive) | > 100 µM (inactive) | > 100 µM (inactive) | > 100 µM (inactive) | > 100 µM (inactive) | 20.8 µM (inactive) | > 100 µM (inactive) | > 100 µM (inactive) | > 100 µM (inactive) | > 100 µM (inactive)
11 | COC(=O)C(CCC1CC(OC)N(C(=O)OCc2ccccc2)C1)/N=C/c1ccccc1 (stereo not given) | > 100 µM (inactive) | > 100 µM (inactive) | > 100 | 59.4 µM (inactive) | 87.9 µM (inactive) | 94.8 µM (inactive) | > 100 µM (inactive) | 54.7 µM (inactive) | 53.8 µM (inactive) | 30.1 µM (inactive) | > 100 µM (inactive) | > 100 µM (inactive) | 36.1 µM (inactive) | 96.2 µM (inactive) | > 100 µM (inactive) | > 100 µM (inactive) | > 100 µM (inactive) | 98.6 µM (inactive) | > 100 µM (inactive) | 31.2 µM (inactive)
12 | COc1ccc2nc3c([N+](=O)[O-])ccc4c3c(c2c1)N(CCCN(C)C)C(=S)N4CCCN(C)C | 17.7 µM (inactive) | 14.5 µM (inactive) | 3.4 | 4.79 µM (inactive) | 2.97 µM (inactive) | 2.5 µM (inactive) | 3.28 µM (inactive) | 4 µM (inactive) | 5.74 µM (inactive) | 3.5 µM (inactive) | 7.48 µM (inactive) | 6.62 µM (inactive) | 6.04 µM (inactive) | 5.79 µM (inactive) | 12.6 µM (inactive) | 8.41 µM (inactive) | 2.62 µM (inactive) | 7.4 µM (inactive) | 6.37 µM (inactive) | 6.12 µM (inactive)
13 | C/C(=N\c1cccc(Cl)c1)c1ccncc1 | > 100 µM (inactive) | > 100 µM (inactive) | > 100 | > 100 µM (inactive) | > 100 µM (inactive) | > 100 µM (inactive) | > 100 µM (inactive) | > 100 µM (inactive) | > 100 µM (inactive) | > 100 µM (inactive) | > 100 µM (inactive) | > 100 µM (inactive) | > 100 µM (inactive) | > 100 µM (inactive) | > 100 µM (inactive) | > 100 µM (inactive) | > 100 µM (inactive) | > 100 µM (inactive) | > 100 µM (inactive) | > 10 µM (inactive)
14 | N/C(=N\c1ccc(Cl)cc1)c1ccccc1N | > 100 µM (inactive) | > 100 µM (inactive) | > 100 | 3.82 µM (inactive) | > 100 µM (inactive) | > 100 µM (inactive) | > 100 µM (inactive) | > 100 µM (inactive) | > 100 µM (inactive) | > 100 µM (inactive) | > 100 µM (inactive) | > 100 µM (inactive) | > 100 µM (inactive) | > 100 µM (inactive) | > 100 µM (inactive) | > 100 µM (inactive) | > 100 µM (inactive) | > 100 µM (inactive) | > 100 µM (inactive) | > 100 µM (inactive)
